Data taken from US20260007601A1, “IONIZABLE CATIONIC LIPID COMPOUND AND COMPOSITION FOR DELIVERING NUCLEIC ACID AND USE THEREOF” (BEIJING YOUCAREKECHUANG PHARMACEUTICAL TECHNOLOGY CO., LTD., priority 2023, published 2026).

Tests used:
[1] = tested on: 293T cells; assay: Fluorescence detection of Fluc-mRNA (cell transfection efficiency of LNP formulations); format: cell-based; settings: for Relative light unit (RLU): LNP containing 0.3 μg Fluc-mRNA, 24 hours; for Multiples of values that equivalent to YK-201: RLU of YK-201 / RLU of the named lipid; for Multiples of values that equivalent to YK-202: RLU of YK-202 / RLU of the named lipid; for Multiples of values that equivalent to YK-209: RLU of YK-209 / RLU of the named lipid; for Ratio relative to SM-102: RLU of the named lipid / RLU of SM-102, times that of SM-102
How it was run: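 293T cells at 10,000 per well, adhered overnight, then given LNPs carrying 0.3 μg Fluc-mRNA (cationic:neutral:structured:polymer-conjugated lipid 49:10:39.5:1.5 molar). After 24 h, luciferase signal read with luciferase kit reagents on an IVIS imaging system as transfection efficiency.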

[2] = tested on: 293T cells; assay: Cell survival rate assay (CCK-8); format: cell-based; settings: LNP containing 1.5 μg Fluc-mRNA, 24 hours, CCK-8
How it was run: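 293T cells seeded at 10,000 per well and grown overnight, then exposed for 24 h to LNPs (cationic/neutral/structured/PEG lipids 49:10:39.5:1.5) carrying 1.5 μg Fluc-mRNA, or Lipofectamine 3000. Viability read by CCK-8, 1 h incubation, absorbance at 450 nm.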

[3] = Particle size and polydispersity index (PDI) of nanolipid particles, dynamic light scattering; format: physicochemical; settings: LNP formulation prepared from the named cationic lipid, 25° C
Method: The particle size and polydispersity index (PDI) were determined by dynamic light scattering method using a Malvern laser particle size analyzer. 10 μL of liposome solution was diluted to 1 mL with RNase-free deionized water and added to a sample pool. Each sample was measured three times. The measurement conditions were: 90° scattering angle, 25° C.

[4] = tested on: female BALB/C mice; assay: Mouse in vivo imaging of Fluc-mRNA LNP formulations; design: average radiation intensity (mRNA expression): unit not given here; settings: 10 μg Fluc-mRNA LNP intramuscularly
How it was run: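 Female BALB/C mice (4–6 weeks, 17–19 g) received LNP carrying 10 μg Fluc-mRNA intramuscularly. Imaging substrate given intraperitoneally at 6 h, 24 h, 48 h and 7 d; after 5 min free movement, average radiance read by IVIS Spectrum imaging.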

[5] = Encapsulation rate, drug loading concentration and total RNA concentration detection (RiboGreen); format: physicochemical; settings: LNP formulation of the named lipid

PDI [3] [%]	Particle size [3] [nm]	Drug loading concentration [5] [µg/mL]	Encapsulation rate [5] [%]	Total RNA concentration [5] [µg/mL]	Compound	Relative light unit (RLU) [1] [RLU]	Multiples of values that equivalent to YK-201 [1]	Multiples of values that equivalent to YK-202 [1]	Multiples of values that equivalent to YK-209 [1]	Ratio relative to SM-102 [1]	Cell survival rate [2] [%]	average radiation intensity (mRNA expression) ([4]; 6 h)	average radiation intensity (mRNA expression) ([4]; 24 h)	average radiation intensity (mRNA expression) ([4]; 48 h)	average radiation intensity (mRNA expression) ([4]; 7 d)
25.8	211	37.51	98.3	38.16	CCCCCCCCC(CCCCCCCC)COC(=O)CCCCCN(CCCCCC(=O)OCC(CCCCCCCC)CCCCCCCC)CCN(C)CCNC [YK-223]	75012	379.71	399.37	280.74	0.05	36.64	10355	1786	678	440
19.2	145	25.44	62.3	35.27	CCCCCCCCCCCOC(=O)CCCCCN(CCO)CCCCCCCC(=O)OC(CCCCCCCC)CCCCCCCC [SM-102, reference compound]	1665874	17.10	17.98		1.00	68.55	678870	115800	30560	5903
17.7	193	32.62	75.9	42.98	CCCCCCCCCCCOC(=O)CCCCCN(CCCCCCCC(=O)OC(CCCCCCCC)CCCCCCCC)CCN(CC)CCO [YK-204, heptadecan-9-yl-8-(2-((2-hydroxyethyl)(ethylamino))ethyl)(6-oxo-6-((undecanyloxy)hexyl)amino)octanoate]	363998	78.25	82.30	57.85	0.22	42.57	35245	5230	2440	754
